These results are taken from paper PMC10794144, “A novel antibiotic class targeting the lipopolysaccharide transporter” (Nature, 2024).

In general, inhibition refers to the drop in the measured response relative to a control, in per cent.

Where two headings read alike, the source gives them in different places.

Holding throughout (assay): Off-target screening (CEREP)
Format in all cases: binding
What all share (conditions): read-out: percent inhibition

One assay concerns the target T1, Alpha2A-adrenoreceptor (Homo sapiens, UniProt P08913).
T1 construct: purchased Eurofins CEREP SA
T1 sequence (P08913 1-465): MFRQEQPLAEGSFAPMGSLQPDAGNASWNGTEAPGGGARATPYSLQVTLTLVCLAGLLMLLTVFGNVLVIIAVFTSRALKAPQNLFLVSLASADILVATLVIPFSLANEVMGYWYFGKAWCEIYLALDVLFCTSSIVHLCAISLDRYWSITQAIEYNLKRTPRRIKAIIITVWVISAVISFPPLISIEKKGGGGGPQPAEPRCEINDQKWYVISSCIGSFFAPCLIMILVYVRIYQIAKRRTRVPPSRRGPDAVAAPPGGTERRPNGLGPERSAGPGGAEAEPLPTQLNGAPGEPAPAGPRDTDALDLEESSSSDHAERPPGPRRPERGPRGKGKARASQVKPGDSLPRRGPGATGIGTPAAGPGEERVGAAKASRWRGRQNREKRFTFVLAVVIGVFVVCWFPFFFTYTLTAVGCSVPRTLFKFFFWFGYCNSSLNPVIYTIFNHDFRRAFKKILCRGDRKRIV
Here is the method:
(§1) Supplementary Table 1 │ Off-target activity screening f or MCP compou nds […]
(§2) The assays given in the table above were conducted at Eurofins CEREP S A (Celle-Lévescault, France) and were run as single point measurements in duplicates in the presence of 10 µ M of the test compound and reported as percent inhibition of the radioligand signal or control enzymatic activity. n.d., not

The next assay concerns the target T2, Beta1-adrenoreceptor (Homo sapiens, UniProt P08588).
T2 construct: purchased Eurofins CEREP SA
On the procedure: as §1, §2

The target in another assay is T3, Cannabinoid receptor CB1 (Homo sapiens, UniProt P21554).
T3 construct: purchased Eurofins CEREP SA
T3 sequence (P21554 whole entry): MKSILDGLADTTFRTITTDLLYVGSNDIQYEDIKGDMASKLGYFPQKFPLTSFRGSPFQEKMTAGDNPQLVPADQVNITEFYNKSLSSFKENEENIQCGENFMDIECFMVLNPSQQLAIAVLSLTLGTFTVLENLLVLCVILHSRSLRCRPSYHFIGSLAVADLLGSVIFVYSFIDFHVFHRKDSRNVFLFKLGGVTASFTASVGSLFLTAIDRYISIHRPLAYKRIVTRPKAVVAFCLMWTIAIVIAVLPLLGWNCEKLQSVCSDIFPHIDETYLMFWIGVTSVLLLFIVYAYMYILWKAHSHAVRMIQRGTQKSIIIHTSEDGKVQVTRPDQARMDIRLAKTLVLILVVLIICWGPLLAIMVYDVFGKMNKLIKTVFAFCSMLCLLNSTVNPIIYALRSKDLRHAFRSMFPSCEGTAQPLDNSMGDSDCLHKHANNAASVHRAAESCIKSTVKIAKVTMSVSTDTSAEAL
On the procedure: as §1, §2

Assay [1] concerns the target T4, Cholecystokinin 1 receptor (Homo sapiens, UniProt P32238).
T4 construct: purchased Eurofins CEREP SA
T4 sequence (P32238 1-428): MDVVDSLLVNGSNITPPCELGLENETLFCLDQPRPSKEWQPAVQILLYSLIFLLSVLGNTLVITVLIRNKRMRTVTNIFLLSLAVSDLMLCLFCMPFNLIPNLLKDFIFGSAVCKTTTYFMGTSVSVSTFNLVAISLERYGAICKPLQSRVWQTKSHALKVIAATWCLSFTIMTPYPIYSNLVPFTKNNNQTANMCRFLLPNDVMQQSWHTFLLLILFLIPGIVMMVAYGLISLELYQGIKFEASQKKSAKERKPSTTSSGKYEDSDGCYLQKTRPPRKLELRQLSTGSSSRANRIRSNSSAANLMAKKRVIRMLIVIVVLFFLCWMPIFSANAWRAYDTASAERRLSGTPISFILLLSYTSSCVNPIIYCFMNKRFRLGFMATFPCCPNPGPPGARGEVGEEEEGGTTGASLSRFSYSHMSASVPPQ
On the procedure: as §1, §2

A further assay addresses T5, Glucocorticoid receptor (Homo sapiens, UniProt P04150).
T5 construct: purchased Eurofins CEREP SA
T5 sequence (P04150 1-777): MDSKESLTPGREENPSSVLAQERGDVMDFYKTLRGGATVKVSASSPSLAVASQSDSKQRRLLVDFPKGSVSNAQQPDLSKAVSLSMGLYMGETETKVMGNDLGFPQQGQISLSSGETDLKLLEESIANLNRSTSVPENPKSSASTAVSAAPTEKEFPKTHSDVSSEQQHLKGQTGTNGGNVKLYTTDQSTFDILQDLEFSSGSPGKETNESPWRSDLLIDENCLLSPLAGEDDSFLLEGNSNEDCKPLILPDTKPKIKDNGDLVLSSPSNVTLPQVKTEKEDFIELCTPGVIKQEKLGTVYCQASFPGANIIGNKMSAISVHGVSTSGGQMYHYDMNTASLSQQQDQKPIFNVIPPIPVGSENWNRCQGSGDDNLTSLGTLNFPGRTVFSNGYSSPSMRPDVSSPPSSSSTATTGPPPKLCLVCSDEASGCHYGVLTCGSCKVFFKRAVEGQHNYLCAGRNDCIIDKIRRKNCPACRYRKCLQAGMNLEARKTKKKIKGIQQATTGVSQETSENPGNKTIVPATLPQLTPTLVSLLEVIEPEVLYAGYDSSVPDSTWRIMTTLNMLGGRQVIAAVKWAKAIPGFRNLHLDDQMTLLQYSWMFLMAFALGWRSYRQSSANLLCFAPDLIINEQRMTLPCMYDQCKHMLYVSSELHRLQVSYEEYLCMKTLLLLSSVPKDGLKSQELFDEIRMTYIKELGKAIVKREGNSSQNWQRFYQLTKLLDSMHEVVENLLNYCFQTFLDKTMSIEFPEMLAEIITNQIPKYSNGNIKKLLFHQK
Here is the method:
as §1, §2

Assay [2] concerns the target Glycine receptor, strychnine insensitive (Rattus norvegicus, UniProt P35439). On the procedure: as §1, §2
The next assay deals with T6, PPAR gamma (Homo sapiens, UniProt P37231).
T6 construct: purchased Eurofins CEREP SA
T6 sequence (P37231 1-505): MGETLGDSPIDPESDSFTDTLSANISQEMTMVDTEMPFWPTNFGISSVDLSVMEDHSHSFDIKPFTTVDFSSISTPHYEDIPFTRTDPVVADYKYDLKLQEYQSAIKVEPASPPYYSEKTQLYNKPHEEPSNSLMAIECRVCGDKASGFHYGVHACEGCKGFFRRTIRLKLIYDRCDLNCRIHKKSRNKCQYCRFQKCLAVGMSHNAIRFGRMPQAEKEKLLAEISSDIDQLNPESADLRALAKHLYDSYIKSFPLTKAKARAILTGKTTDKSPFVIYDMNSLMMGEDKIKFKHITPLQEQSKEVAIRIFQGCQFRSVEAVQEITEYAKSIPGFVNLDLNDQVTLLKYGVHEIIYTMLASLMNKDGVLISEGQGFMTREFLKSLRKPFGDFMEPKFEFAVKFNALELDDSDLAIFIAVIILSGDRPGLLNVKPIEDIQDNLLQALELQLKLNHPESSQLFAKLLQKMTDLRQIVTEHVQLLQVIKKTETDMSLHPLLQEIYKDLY
Here is the method: as §1, §2

Sequence of Glycine receptor, strychnine insensitive (P35439 394-800): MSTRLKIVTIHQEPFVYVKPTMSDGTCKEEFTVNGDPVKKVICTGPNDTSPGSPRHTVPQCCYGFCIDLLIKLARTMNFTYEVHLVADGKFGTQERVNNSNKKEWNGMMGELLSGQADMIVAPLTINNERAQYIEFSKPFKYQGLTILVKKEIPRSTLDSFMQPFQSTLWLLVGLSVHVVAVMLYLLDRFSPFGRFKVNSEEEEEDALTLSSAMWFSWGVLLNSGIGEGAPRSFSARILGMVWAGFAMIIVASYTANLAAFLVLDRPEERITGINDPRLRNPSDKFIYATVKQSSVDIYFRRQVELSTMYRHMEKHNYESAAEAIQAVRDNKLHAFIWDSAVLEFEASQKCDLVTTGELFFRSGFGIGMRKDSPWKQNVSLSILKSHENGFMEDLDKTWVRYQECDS
T2 sequence (P08588 whole entry): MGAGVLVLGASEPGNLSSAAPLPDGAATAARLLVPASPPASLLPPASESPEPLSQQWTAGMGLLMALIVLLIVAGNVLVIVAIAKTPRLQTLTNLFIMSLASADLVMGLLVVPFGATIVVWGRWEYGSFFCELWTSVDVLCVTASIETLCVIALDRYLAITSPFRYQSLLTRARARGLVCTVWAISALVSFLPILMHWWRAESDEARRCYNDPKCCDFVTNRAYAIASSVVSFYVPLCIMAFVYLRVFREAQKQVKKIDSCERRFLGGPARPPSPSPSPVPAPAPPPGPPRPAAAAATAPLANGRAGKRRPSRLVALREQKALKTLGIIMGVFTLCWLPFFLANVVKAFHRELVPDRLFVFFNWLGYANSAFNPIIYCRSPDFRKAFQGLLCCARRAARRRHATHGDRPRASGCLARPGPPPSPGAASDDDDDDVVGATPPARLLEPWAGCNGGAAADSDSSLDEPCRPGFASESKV

On to `CN1C(=O)[C@H](CCCCN)NC(=O)[C@H](CCCN)NCc2cccnc2Sc2c(Cl)ccc(-c3ccc(C(=O)O)cc3)c2CNC(=O)[C@@H]1Cc1c[nH]c2ccccc12` [RO7202110], for which the inhibition at 10 µM at Alpha2A-adrenoreceptor (10 µM, duplicates) was -2%; on Beta1-adrenoreceptor (10 µM, duplicates), -2%; at Cannabinoid receptor CB1 (10 µM, duplicates), -24%; in assay [1] (10 µM, duplicates) it was 0%; on Glucocorticoid receptor (10 µM, duplicates), 9%; in assay [2] it was -25%. Further, the inhibition at 10 µM at PPAR gamma (10 µM, duplicates) is -8%.
As for `CN1C(=O)[C@H](CCCN)NC(=O)[C@H](CCCN)NCc2ccccc2Sc2ccccc2CNC(=O)[C@@H]1Cc1c[nH]c2ccccc12` [RO7036668], the inhibition at 10 µM on Alpha2A-adrenoreceptor (10 µM, duplicates) is -2%; on Beta1-adrenoreceptor (10 µM, duplicates) it was 12%; at Cannabinoid receptor CB1 (10 µM, duplicates) it was -26%; in assay [1] (10 µM, duplicates), 22%; at Glucocorticoid receptor (10 µM, duplicates), 3%; in assay [2] it was -27%. Moreover, the inhibition at 10 µM at PPAR gamma (10 µM, duplicates) was -1%.
Consider `CN1C(=O)[C@H](CCCCN)NC(=O)[C@H](CCCN)NCc2cccnc2Sc2c(Cl)ccc(Cl)c2CNC(=O)[C@@H]1Cc1c[nH]c2ccccc12` [RO7075573], for which the inhibition at 10 µM was -5% on Alpha2A-adrenoreceptor; -2% at Beta1-adrenoreceptor; -16% on Cannabinoid receptor CB1; 32% in assay [1]; 9% on Glucocorticoid receptor; -29% in assay [2]. Moreover, on PPAR gamma, the inhibition at 10 µM was -16%.
On to `CN1C(=O)[C@H](CCCCN)NC(=O)[C@H](CCCN)NCc2cccnc2Sc2cccc(-c3ccc(C(=O)O)cc3)c2CNC(=O)[C@@H]1Cc1c[nH]c2ccccc12` [zosurabalpin], for which the inhibition at 10 µM on Alpha2A-adrenoreceptor was 4%; on Beta1-adrenoreceptor, 10%; at Cannabinoid receptor CB1, -20%; in assay [1], -1%; at Glucocorticoid receptor, -1%; in assay [2] it was 15%. The inhibition at 10 µM on PPAR gamma is -4%.
